What was measured:
CDK2/CycE = target: T1, CDK2/CycE (Homo sapiens, UniProt P24941); test: CDK2/CycE kinase assay (TR-FRET, 2 mM ATP); format: biochemical; conditions: read-out: CDK2/CyclinE, 2 mM ATP (high ATP) IC50-[mol/l] (median)
T1 construct: purchased ProQinase GmbH (Freiburg, Germany); host or cells: insect cells (Sf9)
From the text: CDK2/CycE-inhibitory activity of compounds of the present invention was quantified employing the CDK2/CycE TR-FRET assay as described in the following paragraphs.
Recombinant fusion proteins of GST and human CDK2 and of GST and human CycE, expressed in insect cells (Sf9) and purified by Glutathion-Sepharose affinity chromatography, were purchase from ProQinase GmbH (Freiburg, Germany). As substrate for the kinase reaction biotinylated peptide biotin-Ttds-YISPLKSPYKISEG (C-terminus in amid form) was used which can be purchased e.g. form the company JERINI peptide technologies (Berlin, Germany).
For the assay 50 nanoL of a 100 fold concentrated solution of the test compound in DMSO was pipetted into a black low volume 384 well microtiter plate or a black 1536 well microtiter plate (both Greiner Bio-One, Frickenhausen, Germany), 2 microL of a solution of CDK2/CycE in aqueous assay buffer [50 millimol/L Tris/HCl pH 8.0, 10 millimol/L MgCl2, 1.0 millimol/L dithiothreitol, 0.1 millimol/L sodium ortho-vanadate, 0.01% (v/v) Nonidet-P40 (Sigma)] were added and the mixture was incubated for 15 min at 22° C. to allow pre-binding of the test compounds to the enzyme before the start of the kinase reaction. Then the kinase reaction was started by the addition of 3 microL of a solution of adenosine-tri-phosphate (ATP, 3.33 millimol/L=> final conc. in the 5 microL assay volume is 2 millimol/L) and substrate (1.25 micromol/L=> final conc. in the 5 microL assay volume is 0.75 micromol/L) in assay buffer and the resulting mixture was incubated for a reaction time of 25 min at 22° C. The concentration of CDK2/CycE was adjusted depending of the activity of the enzyme lot and was chosen appropriate to have the assay in the linear range, typical concentrations were in the range of 10 ng/ml. The reaction was stopped by the addition of 3 microL of a solution of TR-FRET detection reagents (0.333 micromol/L streptavidine-XL665 [Cisbio Bioassays, Codolet, France] and 1.67 nanomol/L anti-RB(pSer807/pSer8l 1)-antibody from BD Pharmingen [#558389] and 2 nanomol/L LANCE EU-W1024 labeled anti-mouse IgG antibody [Perkin-Elmer, product no. AD0077, as an alternative a Terbium-cryptate-labeled anti-mouse IgG antibody from Cisbio Bioassays can be used]) in an aqueous EDTA-solution (167 millimol/L EDTA, 0.2% (w/v) bovine serum albumin in 100 millimol/L HEPES pH 7.5).
The resulting mixture was incubated 1 h at 22° C. to allow the formation of complex between the phosphorylated biotinylated peptide and the detection reagents. Subsequently the amount of phosphorylated substrate was evaluated by measurement of the resonance energy transfer from the Eu-chelate to the streptavidine-XL. Therefore, the fluorescence emissions at 620 nm and 665 nm after excitation at 350 nm was measured in a TR-FRET reader, e.g. a Pherastar (BMG Labtechnologies, Offenburg, Germany) or a Viewlux (Perkin-Elmer). The ratio of the emissions at 665 nm and at […] was taken as the measure for the amount of phosphorylated substrate. The data were normalised (enzyme reaction without inhibitor=0% inhibition, all other assay components but no enzyme=100% inhibition).

[1] = system: MDA-MB-231 human breast cancer cells; test: Proliferation assay MDA-MB-231 (crystal violet); format: cell-based; conditions: 96 h, MDA-MB-231 cells, 4 days, read-out: Prolif-MDA MB231 IC50-[mol/l] (median)
Procedure: Human tumour cells were originally obtained from the American Type Culture Collection (ATCC), or from the Deutsche Sammlung von Mikroorganismen und Zellkulturen (DSMZ, German Collection of Microorganisms and Cell Cultures). Cultivated tumour cells (CAL-120, human breast adenocarcinoma cells, DSMZ ACC-459; MDA-MB-231, human breast cancer cells, ATCC HTB-26) were plated at a density of 4,000 cells/well in a 96-well multititer plate in 200 microL of their respective growth medium supplemented 10% fetal calf serum. After 24 hours, the cells of one plate (zero-point plate) were stained with crystal violet (see below), while the medium of the other plates was supplemented with the test substances in various concentrations (0 micromol/L, as well as in the range of 0.01-10 micromol/L; the final concentration of the solvent dimethyl sulfoxide was adjusted to 0.1%) using a Tecan HP D300 Digital Dispenser. The cells were incubated for 4 days in the presence of test substances. Cell proliferation was determined by staining the cells with crystal violet: the cells were fixed by adding 20 microL/measuring point of an 11% glutaric aldehyde solution for 15 minutes at room temperature. After three washing cycles of the fixed cells with water, the plates were dried at room temperature. The cells were stained by adding 100 microL/measuring point of a 0.1% crystal violet solution (pH 3.0). After three washing cycles of the stained cells with water, the plates were dried at room temperature. The dye was dissolved by adding 100 microL/measuring point of a 10% acetic acid solution. The extinction was determined by photometry at a wavelength of 595 nm. The change of cell number, in percent, was calculated by normalization of the measured values to the extinction values of the zero-point plate (=0%) and the extinction of the untreated (0 μM) cells (=100%). The IC50 values (inhibitory concentration at 50% of maximal effect) were determined by means of a 4 parameter fit.

CDK12 = target: T2, CDK12 (Homo sapiens, UniProt Q9NYV4); test: CDK12 nuclear protein level: immunofluorescence/high content analysis in CAL-120 cells; format: cell-based; conditions: for DC50: CAL-120 cells, 24 h, nuclear CDK12 staining, read-out: CDK12 degradation IF DC50-[mol/l] (median); for (IC50 CDK12 high ATP) to (Degradation DC50 CDK12) ratio: IC50 CDK12 hATP (Table 2) divided by DC50 CDK12 IF (Table 8)
T2 construct: endogenous in cells; host or cells: CAL-120 human breast cancer cells (DSMZ ACC 459)
T2 sequence (Q9NYV4 whole entry): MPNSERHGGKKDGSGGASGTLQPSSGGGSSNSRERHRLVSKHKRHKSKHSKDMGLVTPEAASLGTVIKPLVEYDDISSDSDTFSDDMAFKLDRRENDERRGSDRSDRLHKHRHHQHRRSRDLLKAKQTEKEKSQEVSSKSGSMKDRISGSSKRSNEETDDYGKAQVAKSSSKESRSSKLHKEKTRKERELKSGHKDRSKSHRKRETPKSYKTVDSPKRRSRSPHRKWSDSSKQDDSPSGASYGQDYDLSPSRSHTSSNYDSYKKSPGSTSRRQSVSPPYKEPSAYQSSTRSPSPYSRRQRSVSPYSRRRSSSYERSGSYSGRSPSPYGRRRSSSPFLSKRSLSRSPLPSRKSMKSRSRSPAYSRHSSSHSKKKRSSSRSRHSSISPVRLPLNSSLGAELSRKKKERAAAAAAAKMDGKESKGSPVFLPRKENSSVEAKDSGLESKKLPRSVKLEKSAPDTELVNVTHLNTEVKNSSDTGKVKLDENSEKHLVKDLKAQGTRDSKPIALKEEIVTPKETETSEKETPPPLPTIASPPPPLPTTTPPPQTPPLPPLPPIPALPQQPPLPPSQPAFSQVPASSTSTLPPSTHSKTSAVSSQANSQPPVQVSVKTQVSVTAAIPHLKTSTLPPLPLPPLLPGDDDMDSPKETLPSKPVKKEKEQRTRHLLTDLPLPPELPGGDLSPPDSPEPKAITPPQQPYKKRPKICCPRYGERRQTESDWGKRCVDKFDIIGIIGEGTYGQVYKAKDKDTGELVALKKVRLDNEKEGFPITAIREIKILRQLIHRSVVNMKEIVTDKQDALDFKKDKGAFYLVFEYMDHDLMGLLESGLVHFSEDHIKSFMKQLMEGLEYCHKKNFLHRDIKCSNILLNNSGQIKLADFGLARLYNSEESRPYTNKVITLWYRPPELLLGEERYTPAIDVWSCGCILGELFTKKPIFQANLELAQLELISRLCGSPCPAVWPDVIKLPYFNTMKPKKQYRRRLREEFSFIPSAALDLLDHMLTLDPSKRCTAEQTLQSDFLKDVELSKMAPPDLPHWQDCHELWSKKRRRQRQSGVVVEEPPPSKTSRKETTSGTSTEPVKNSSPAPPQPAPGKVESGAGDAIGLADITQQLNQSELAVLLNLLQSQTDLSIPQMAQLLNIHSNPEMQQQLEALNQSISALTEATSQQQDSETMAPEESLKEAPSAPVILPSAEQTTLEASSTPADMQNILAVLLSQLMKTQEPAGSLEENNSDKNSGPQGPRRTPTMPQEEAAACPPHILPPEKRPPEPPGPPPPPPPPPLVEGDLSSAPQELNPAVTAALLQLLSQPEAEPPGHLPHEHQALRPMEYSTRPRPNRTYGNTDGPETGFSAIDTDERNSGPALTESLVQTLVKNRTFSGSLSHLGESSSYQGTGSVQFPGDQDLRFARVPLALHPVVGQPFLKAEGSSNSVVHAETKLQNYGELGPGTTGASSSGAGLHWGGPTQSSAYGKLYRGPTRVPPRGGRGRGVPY
T2 sequence (O75909 whole entry partner): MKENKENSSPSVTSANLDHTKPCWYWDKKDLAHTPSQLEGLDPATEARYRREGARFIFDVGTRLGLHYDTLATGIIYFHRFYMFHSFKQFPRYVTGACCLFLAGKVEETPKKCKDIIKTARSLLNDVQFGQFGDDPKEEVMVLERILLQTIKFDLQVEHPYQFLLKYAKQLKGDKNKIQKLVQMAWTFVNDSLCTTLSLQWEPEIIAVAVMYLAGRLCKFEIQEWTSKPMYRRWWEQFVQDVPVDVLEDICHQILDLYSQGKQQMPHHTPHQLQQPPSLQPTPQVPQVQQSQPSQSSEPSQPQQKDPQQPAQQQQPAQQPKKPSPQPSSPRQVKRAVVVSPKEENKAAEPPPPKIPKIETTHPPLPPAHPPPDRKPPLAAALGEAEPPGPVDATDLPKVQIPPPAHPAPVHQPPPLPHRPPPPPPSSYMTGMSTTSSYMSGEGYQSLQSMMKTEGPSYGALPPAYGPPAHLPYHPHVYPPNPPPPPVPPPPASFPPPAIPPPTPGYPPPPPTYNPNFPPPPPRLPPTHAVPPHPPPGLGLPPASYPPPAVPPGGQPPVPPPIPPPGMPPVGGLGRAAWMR
Procedure: In the context of the present invention, the term “DC50 CDK12” refers to the DC50 values obtained according to the assay described in this section (6) herein below, i.e. the DC50 values for the degradation of CDK12.
CAL-120 human breast cancer cells (DSMZ ACC 459) are seeded in 1536-well microtiter plates (800 cells per well) containing 50 nanoL of compounds in Dose-Response. Control wells received DMSO or Reference Example 1. Plates are then incubated for 24 h at 37° C. in an humidified incubator and fixed with 4% PFA for 10 min. Then immunofluorescence (IF) against CDK12 (CellSignalling CDK12 Antibody #11973, rabbit, 1:100 dilution) is performed using standard IF protocols. Cells are then stained with Hoechst 33342 (Life Technologies, H-1399, 0.1 microg/ml) and imaged on an automated confocal microscopy system (e.g. Perkin Elmer Opera Phenix). Nuclear and cytoplasmic intensity as well as the nuclear/cytoplasmic intensity ratio is determined by automated image analysis using custom generated scripts (MetaXpress). Data is then transferred to Genedata Screener software, normalized to DMSO and control and DC50 values (degrading concentration to achieve 50% reduction of nuclear CDK12 staining intensity relative to controls) are reported.

Row | Compound | IC50 (CDK2/CycE) [nM] | IC50 [1] [nM] | DC50 (CDK12) [nM] | (IC50 CDK12 high ATP) to (Degradation DC50 CDK12) ratio (CDK12)
1 | Fc1cccc2[nH]c(CNc3nc(N4CCOCC4)nn4c(Br)cnc34)nc12 [Example 12, 7-bromo-N-[(4-fluoro-1H-benzimidazol-2-yl)methyl]-2-(morpholin-4-yl)imidazo[2,1-f][1,2,4]triazin-4-amine] | > 20000 | 111 | 4.35 | 1084
2 | C[C@@H]1CN(c2nc(NCc3nc4ccccc4[nH]3)c3ncc(Br)n3n2)C[C@H](C)N1 [Example 9, N-[(1H-benzimidazol-2-yl)methyl]-7-bromo-2-[rel-(3R,5S)-3,5-dimethylpiperazin-1-yl]imidazo[2,1-f][1,2,4]triazin-4-amine] | > 20000 | 9.6 | 0.575 | 8519
3 | C[C@@H]1CN(c2nc(NCc3nc4ccccc4[nH]3)c3ncc(C(F)(F)F)n3n2)C[C@H](C)N1.O=CO [Example 24, N-[(1H-benzimidazol-2-yl)methyl]-2-[rel-(3R,5S)-3,5-dimethylpiperazin-1-yl]-7-(trifluoromethyl)imidazo[2,1-f][1,2,4]triazin-4-amine Formate (1/1)] | > 20000 | 1.52 | 0.274 | 2691
4 | FC(F)(F)c1cnc2c(NCc3nc4ccccc4[nH]3)nc(N3CCOCC3)nn12 [Example 26, N-[(1H-benzimidazol-2-yl)methyl]-2-(morpholin-4-yl)-7-(trifluoromethyl)imidazo[2,1-f][1,2,4]triazin-4-amine] | > 19400 | 7.21 | 4.79 | 36
5 | CN1CCN(c2nc(NCc3nc4ccccc4[nH]3)c3ncc(C(F)(F)F)n3n2)CC1 [Example 25, N-[(1H-benzimidazol-2-yl)methyl]-2-(4-methylpiperazin-1-yl)-7-(trifluoromethyl)imidazo[2,1-f][1,2,4]triazin-4-amine] | > 20000 | 13.2 | 3.55 | 3050
6 | Fc1ccc2[nH]c(CNc3nc(N4CCOCC4)nn4c(C(F)(F)F)cnc34)nc2c1F [Example 27, N-[(4,5-difluoro-1H-benzimidazol-2-yl)methyl]-2-(morpholin-4-yl)-7-(trifluoromethyl)imidazo[2,1-f][1,2,4]triazin-4-amine] | > 20000 | 1.91 | 1.1 | 10
7 | COc1cccc2[nH]c(CNc3nc(N4CCN(C)CC4)nn4c(Br)cnc34)nc12.O=CO [Example 16, 7-bromo-N-[(4-methoxy-1H-benzimidazol-2-yl)methyl]-2-(4-methylpiperazin-1-yl)imidazo[2,1-f][1,2,4]triazin-4-amine Formate (1/1)] | 12600 | 13.1 | 1.32 | 4779
8 | Brc1cnc2c(NCc3nc4ccccc4[nH]3)nc(N3CCNCC3)nn12 [Example 8, N-[(1H-benzimidazol-2-yl)methyl]-7-bromo-2-(piperazin-1-yl)imidazo[2,1-f][1,2,4]triazin-4-amine] | > 20000 | 14.5 | 0.527 | 10707
9 | COc1cccc2[nH]c(CNc3nc(N4CCNCC4)nn4c(Br)cnc34)nc12 [Example 15, 7-bromo-N-[(4-methoxy-1H-benzimidazol-2-yl)methyl]-2-(piperazin-1-yl)imidazo[2,1-f][1,2,4]triazin-4-amine] | 14200 | 5.65 | 1.16 | 1790
10 | Fc1ccc2[nH]c(CNc3nc(N4CCNCC4)nn4c(Br)cnc34)nc2c1F [Example 10, 7-bromo-N-[(4,5-difluoro-1H-benzimidazol-2-yl)methyl]-2-(piperazin-1-yl)imidazo[2,1-f][1,2,4]triazin-4-amine] | > 20000 | 2.49 | 0.132 | 10329
11 | COc1cccc2[nH]c(CNc3nc(N4CCOCC4)nn4c(Br)cnc34)nc12 [Example 13, 7-bromo-N-[(4-methoxy-1H-benzimidazol-2-yl)methyl]-2-(morpholin-4-yl)imidazo[2,1-f][1,2,4]triazin-4-amine] | 5740 | 27.9 | 1.79 | 742
12 | CN1CCN(c2nc(NCc3nc4c(F)c(F)ccc4[nH]3)c3ncc(C(F)(F)F)n3n2)CC1 [Example 28, N-[(4,5-difluoro-1H-benzimidazol-2-yl)methyl]-2-(4-methylpiperazin-1-yl)-7-(trifluoromethyl)imidazo[2,1-f][1,2,4]triazin-4-amine] | > 20000 | 2.83 | 0.58 | 2887
13 | C[C@@H]1CN(c2nc(NCc3nc4c(F)c(F)ccc4[nH]3)c3ncc(C(F)(F)F)n3n2)C[C@H](C)N1 [Example 29, N-[(4,5-difluoro-1H-benzimidazol-2-yl)methyl]-2-[rel-(3R,5S)-3,5-dimethylpiperazin-1-yl]-7-(trifluoromethyl)imidazo[2,1-f][1,2,4]triazin-4-amine] | > 20000 | 0.839 | 0.229 | 177

— patent US20230106032A1, “IMIDAZOTRIAZINES ACTING ON CANCER VIA INHIBITION OF CDK12” (Bayer Aktiengesellschaft, priority 2020, published 2023)
